Laboratory results: US8110570B2, “Modulators of acetyl-coenzyme A carboxylase and methods of use thereof” (Cropsolution, Inc., priority 2008, dated 2012)
Each block holds one compound with its values, some of them ahead of it.

Assays:
hACC1 = target: T1, hACC1 (Homo sapiens, UniProt Q13085); assay: [14C]bicarbonate incorporation assay, overall ACC activity; format: biochemical; conditions: recombinant hACC1, overall ACC activity
T1 construct: PCR primers were designed for full-length hACC1 and hACC2 using GenBank submissions AY237919 and AJ575592, respectively; His tag (C); made in house; host or cells: baculovirus, Sf9 insect cells
Experimental: (§1) In vitro IC50 values of human ACC were determined using recombinant enzyme produced by standard procedures. For example, full-length cDNAs for both the human isoforms (hACC1 and hACC2) were each cloned and expressed as a recombinant protein using a baculovirus system. Double stranded cDNA from human fetal liver (Quick-Clone cDNA, cat. #7171-1) was purchased from BD/Clontech (Mt. View, Calif.). PCR primers were designed for full-length hACC1 and hACC2 using GenBank submissions AY237919 and AJ575592, respectively. The Advantage GC 2 PCR kit (BD/Clontech) was used for amplification. The PCR products (about 7 Kb) were TOPO-cloned into the pCR4Blunt vector (Invitrogen, Carlsbad, Calif.), and 6 clones of each gene were isolated. […] Full length versions of the two cDNAs corresponding to their respective Genbank sequences were assembled in pBluescript SK+ (Stratagene, La Jolla, Calif.) by combining error-free fragments from the PCR clones. The resulting hACC1 clone, designated pCS35, has six silent nucleotide differences compared to Genbank accession AY237919. The final hACC2 clone, designated pCS36, has ten silent nucleotide differences compared to Genbank accession AJ575592. Primers were designed to PCR amplify the cDNAs along with the in-frame 3′-his tag sequences from the pET vector and TOPO-cloned the resulting products into the Gateway® entry vector pENTR/D-TOPO. The ACC2 primers were designed to delete amino acids 1-148 and add Met-Gly in front of Lys149 in the final product. The resulting entry clones were transferred to BaculoDirect™ linear DNA (Invitrogen corp.) using the Gateway® LR recombination reaction. The recombinant baculovirus DNA was transfected into insect cells and viral amplification was performed according to the manufacturer's protocols. For protein expression sf9 cells were infected with a P3 viral stock in the presence of 50 uM biotin. The cells were harvested after 48-72 hr, lysed by sonication, and the resulting extract was clarified by centrifugation. ACC in the crude extract was concentrated by ammonium sulfate precipitation (40% w/v) and purified by Ni^2+-NTA chromatography (Novagen) followed by anion exchange chromatography on a UNO-Q column (BioRad).
(§2) Overall ACC activity in the hACC preparations is measured by following incorporation of [^14C]bicarbonate into […] essentially as described (Thumpy and Wakil, J Biol Chem 260, 6318-6323 (1985). Briefly, the reaction mixture (50 μL) contains: 50 mM Hepes (pH7.4), 20 mM K-Citrate, 20 mM Mg-Acetate 1.5 mM MgSO4, 2 mM DTT, 2 mM acetyl-CoA, 12 mM NaHCO3, 0.2 mM NaH^14CO3 (˜50 mCi/mmol), 0.01% (v/v) Triton X-100, 0.75 mg/mL BSA, 1% (v/v) DMSO (with or without inhibitor), and 0.3 μg (hACC1) or 0.15 μg (hACC2) enzyme. Reactions are initiated by the addition of ATP to a final concentration 2 mM. After 10 minutes at 37° C., the reaction is stopped by the addition of 2N HCl (50 μL). The samples are evaporated in a hood overnight, resuspended in H2O (200 μL), and incorporated label is quantified by scintillation counting in scintillation cocktail (3 mL). Inhibition data are fit to dose-response curves and IC50 values are reported (i.e. the concentration of inhibitor that gives 50% inhibition).

hACC2 = target: T2, hACC2 (Homo sapiens, UniProt O00763); assay: as above; format: biochemical; conditions: recombinant hACC2, overall ACC activity
T2 construct: delete amino acids 1-148 and add Met-Gly in front of Lys149 in the final product; His tag (C); made in house; host or cells: baculovirus, Sf9 insect cells
T2 sequence (O00763 149-2458 limits assumed): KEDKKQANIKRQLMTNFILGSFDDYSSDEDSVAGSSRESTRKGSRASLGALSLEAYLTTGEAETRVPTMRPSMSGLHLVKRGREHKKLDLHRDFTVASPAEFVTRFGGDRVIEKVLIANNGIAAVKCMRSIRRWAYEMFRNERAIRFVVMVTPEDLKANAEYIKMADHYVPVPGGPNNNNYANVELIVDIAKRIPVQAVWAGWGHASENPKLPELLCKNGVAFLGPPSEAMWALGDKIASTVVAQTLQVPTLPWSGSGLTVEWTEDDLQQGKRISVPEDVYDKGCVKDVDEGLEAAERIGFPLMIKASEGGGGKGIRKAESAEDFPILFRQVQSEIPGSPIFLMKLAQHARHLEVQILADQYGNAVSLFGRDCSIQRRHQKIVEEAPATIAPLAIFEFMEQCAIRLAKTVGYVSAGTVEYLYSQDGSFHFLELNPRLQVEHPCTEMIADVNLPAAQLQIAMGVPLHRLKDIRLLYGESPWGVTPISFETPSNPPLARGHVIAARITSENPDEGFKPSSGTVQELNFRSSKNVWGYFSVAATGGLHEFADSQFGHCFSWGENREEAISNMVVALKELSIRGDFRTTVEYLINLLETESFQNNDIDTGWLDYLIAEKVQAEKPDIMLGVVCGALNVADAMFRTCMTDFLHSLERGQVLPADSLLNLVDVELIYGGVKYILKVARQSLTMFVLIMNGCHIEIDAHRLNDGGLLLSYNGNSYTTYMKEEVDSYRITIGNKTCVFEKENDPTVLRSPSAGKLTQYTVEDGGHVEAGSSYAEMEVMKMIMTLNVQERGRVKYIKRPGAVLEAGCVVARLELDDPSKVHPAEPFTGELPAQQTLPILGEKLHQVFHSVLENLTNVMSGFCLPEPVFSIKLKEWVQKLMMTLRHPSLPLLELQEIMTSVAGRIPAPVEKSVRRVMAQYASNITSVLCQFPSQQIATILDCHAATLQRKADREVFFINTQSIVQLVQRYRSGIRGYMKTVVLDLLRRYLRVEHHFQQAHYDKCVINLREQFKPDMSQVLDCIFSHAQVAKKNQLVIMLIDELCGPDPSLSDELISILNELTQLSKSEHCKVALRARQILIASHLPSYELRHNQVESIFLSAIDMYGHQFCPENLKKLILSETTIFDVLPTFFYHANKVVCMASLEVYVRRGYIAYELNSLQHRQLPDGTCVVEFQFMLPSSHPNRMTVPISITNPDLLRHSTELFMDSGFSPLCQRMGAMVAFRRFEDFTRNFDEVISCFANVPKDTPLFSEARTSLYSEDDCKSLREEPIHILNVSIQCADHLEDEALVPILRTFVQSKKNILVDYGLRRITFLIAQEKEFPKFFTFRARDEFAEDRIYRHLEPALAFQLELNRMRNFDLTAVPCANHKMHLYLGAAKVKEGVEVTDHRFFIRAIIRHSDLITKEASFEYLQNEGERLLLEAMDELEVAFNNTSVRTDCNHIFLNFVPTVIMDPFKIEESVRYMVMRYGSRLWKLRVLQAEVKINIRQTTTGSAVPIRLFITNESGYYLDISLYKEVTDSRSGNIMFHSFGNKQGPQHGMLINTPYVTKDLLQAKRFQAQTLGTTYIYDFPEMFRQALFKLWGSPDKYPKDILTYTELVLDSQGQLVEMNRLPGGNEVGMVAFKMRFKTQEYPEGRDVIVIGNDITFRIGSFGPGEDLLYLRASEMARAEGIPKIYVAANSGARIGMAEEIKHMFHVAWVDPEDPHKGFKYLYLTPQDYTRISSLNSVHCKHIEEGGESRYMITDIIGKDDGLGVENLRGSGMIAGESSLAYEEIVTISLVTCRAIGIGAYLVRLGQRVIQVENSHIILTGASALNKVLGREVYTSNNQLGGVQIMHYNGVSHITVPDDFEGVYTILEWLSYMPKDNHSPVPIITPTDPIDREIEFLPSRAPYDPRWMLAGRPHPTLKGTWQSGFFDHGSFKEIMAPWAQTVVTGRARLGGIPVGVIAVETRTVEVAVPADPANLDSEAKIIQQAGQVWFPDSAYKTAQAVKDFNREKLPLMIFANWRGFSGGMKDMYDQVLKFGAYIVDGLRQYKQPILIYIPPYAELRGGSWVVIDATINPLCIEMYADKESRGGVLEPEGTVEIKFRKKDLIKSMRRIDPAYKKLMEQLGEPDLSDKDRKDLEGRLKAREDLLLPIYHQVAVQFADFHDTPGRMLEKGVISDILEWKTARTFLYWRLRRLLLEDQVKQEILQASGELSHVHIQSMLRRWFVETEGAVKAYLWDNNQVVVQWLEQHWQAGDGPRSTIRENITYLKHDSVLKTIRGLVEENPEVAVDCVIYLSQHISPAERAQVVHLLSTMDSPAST
Experimental: as §1, §2

[1] = system: A2780 human ovary cancer cells; assay: MTT Cell Proliferation Assay; format: cell-based; conditions: 72 hours, read-out: Percent of Control A2780
Experimental: (§3) The anti-proliferative activity of test compounds against human tumor cell lines is evaluated in vitro using the ATCC's MTT Cell Proliferation Assay (Catalog No. 30-100K). Cell lines are grown using media, serum, and culture conditions recommended by the ATCC. Stock cultures are allowed to grow to 70-80% confluence. Cells are seeded into 96-well culture plates at a predetermined density on day 0 in complete medium (0.1 mL). Plates are placed in a humidified incubator at 37° C. with 5% CO2 and 95% HEPA filtered room air for 24 hours. At this point compound (0.1 mL of 2× stock (in media)) is added to the indicated wells and the plates are returned to the incubator for 72 hours. Cell proliferation is measured by addition of MTT reagent to each well and incubated for an additional 4 hours, followed by addition of cell lysis/MTT solublization reagent and incubating overnight. […] Results are expressed as percent of control cells versus compound concentration. Compounds of the present invention, and salts thereof, were evaluated for anti-proliferative activity as described above.

[2] = system: HCT-116 human colon cancer cells; assay: MTT Cell Proliferation Assay; format: cell-based; conditions: 72 hours, read-out: Percent of Control HCT-116
Experimental: as §3

[3] = system: MDA-MB-231 human breast cancer cells; assay: MTT Cell Proliferation Assay; format: cell-based; conditions: 72 hours, read-out: Percent of Control MDA-MB-231
Experimental: as §3

[4] = system: PC-3 human prostate cancer cells; assay: MTT Cell Proliferation Assay; format: cell-based; conditions: 72 hours, read-out: Percent of Control PC-3
Experimental: as §3

SMILES: COc1cc2c(OC)cccc2cc1C(=O)N1CCC2(CC1)NC(=O)c1cc(Cl)ccc1O2 [Compound 131, 6-Chloro-1′-[(3,5-dimethoxynaphth-2-yl)carbonyl]spiro[2H-1,3-benzoxazin-2,4′-piperidin]-4-(3H)-one]
IC50 (hACC1): 1900 nM
IC50 (hACC2): 450 nM

SMILES: COc1cc2c(OC)cccc2cc1C(=O)N1CCC2(CC1)NC(=O)c1cc(NC(C)=O)ccc1O2 [Compound 132, 6-Acetamido-1′-[(3,5-dimethoxynaphth-2-yl)carbonyl]spiro[2H-1,3-benzoxazin-2,4′-piperidin]-4-(3H)-one]
IC50 (hACC1): 800 nM
IC50 (hACC2): 300 nM

SMILES: COc1cc(C(=O)N2CCC3(CC2)NC(=O)c2cc(Br)ccc2O3)nc2c(SC)cccc12 [Compound 133]
IC50 (hACC1): 140 nM
IC50 (hACC2): 110 nM

SMILES: COc1cc(C(=O)N2CCC3(CC2)NC(=O)c2cc(NC(C)=O)ccc2O3)nc2c(SC)cccc12 [Compound 136]
IC50 (hACC1): 75 nM
IC50 (hACC2): 55 nM

SMILES: COc1cc2c(OC)cccc2cc1C(=O)N1CCC2(CC1)Oc1ccc(Br)cc1C(=O)N2C [Compound 138, 6-Bromo-1′-[(3,5-dimethoxynaphth-2-yl)carbonyl]-3-methylspiro[2H-1,3-benzoxazin-2,4′-piperidin]-4-(3H)-one]
IC50 (hACC1): 1200 nM
IC50 (hACC2): 880 nM

SMILES: COc1cccc2c(C)c(C(=O)N3CCC4(CC3)NC(=O)c3cc(C)ccc3O4)[nH]c12 [Compound 143]
IC50 (hACC1): 130 nM
IC50 (hACC2): 190 nM

SMILES: COc1cc(C(=O)N2CCC3(CC2)NC(=O)c2cc(C)ccc2O3)nc2c(SC)cccc12 [Compound 148]
IC50 (hACC1): 88 nM
IC50 (hACC2): 66 nM

SMILES: COc1ccc2c(c1)C(=O)NC1(CCN(C(=O)c3[nH]c4c(OC)cccc4c3C)CC1)O2 [Compound 151]
IC50 (hACC1): 82 nM
IC50 (hACC2): 96 nM
activity at 3.3 µM [1]: 92.7%
activity at 10 µM [1]: 64%
activity at 3.3 µM [2]: 78.6%
activity at 10 µM [2]: 61.8%
activity at 3.3 µM [3]: 82.9%
activity at 10 µM [3]: 50.1%
activity at 3.3 µM [4]: 86.1%
activity at 10 µM [4]: 68.5%

SMILES: COc1ccc(OC)c2c1cc(C(=O)N1CCC3(CC1)NC(=O)c1cc(OC(C)C)ccc1O3)n2C [Compound 185]
IC50 (hACC1): 90 nM
IC50 (hACC2): 83 nM

SMILES: COc1ccc2c(c1)C(=O)NC1(CCN(C(=O)c3cc(OC)c4cccc(OC)c4c3)CC1)N2 [Compound 187]
IC50 (hACC1): 87 nM
activity at 3.3 µM [1]: 102%
activity at 10 µM [1]: 64.9%
activity at 3.3 µM [2]: 71%
activity at 10 µM [2]: 56.1%
activity at 3.3 µM [3]: 80.8%
activity at 10 µM [3]: 45.6%
activity at 3.3 µM [4]: 69.9%
activity at 10 µM [4]: 52.2%

SMILES: COc1ccc2c(c1)C(=O)NC1(CCN(C(=O)c3cc(OC)c4cccc(OC)c4n3)CC1)N2 [Compound 188]
IC50 (hACC1): 260 nM
activity at 3.3 µM [1]: 94.8%
activity at 10 µM [1]: 51.4%
activity at 3.3 µM [2]: 90.3%
activity at 10 µM [2]: 68.2%
activity at 3.3 µM [3]: 70.3%
activity at 10 µM [3]: 28.7%
activity at 3.3 µM [4]: 62.6%
activity at 10 µM [4]: 19%

SMILES: COc1cc(C(=O)N2CCC3(CC2)NC(=O)c2cc(OC(C)C)ccc2O3)cc2[nH]ncc12 [Compound 230]
IC50 (hACC1): 110 nM
IC50 (hACC2): 85 nM

Compounds with a lower IC50 (hACC1), results first:

IC50 (hACC1): 67 nM
IC50 (hACC2): 29 nM
SMILES: COc1cc(C(=O)N2CCC3(CC2)NC(=O)c2cc(C)ccc2O3)nc2c(OC)cccc12 [Compound 137]

IC50 (hACC1): 47 nM
IC50 (hACC2): 33 nM
SMILES: COc1cc(C(=O)N2CCC3(CC2)NC(=O)c2cc(C(C)C)ccc2O3)cc2[nH]ncc12 [Compound 231]

IC50 (hACC1): 36 nM
IC50 (hACC2): 31 nM
SMILES: COc1ccc2cc3c(cc2c1)C(=O)NC1(CCN(C(=O)c2[nH]c4c(OC)cccc4c2C)CC1)O3 [Compound 166, 7-Methoxy-1′-[[7-methoxy-3-methyl-1H-indol-2-yl)carbonyl]spiro[2H-naphtho[2,3-e]-1,3-oxazin-2,4′-piperidin]-4-(3H)-one]

IC50 (hACC1): 35 nM
IC50 (hACC2): 25 nM
SMILES: CCOc1ccc2c(c1)C(=O)NC1(CCN(C(=O)c3cc(OC)c4cccc(SC)c4n3)CC1)O2 [Compound 149]

IC50 (hACC1): 35 nM
IC50 (hACC2): 16 nM
SMILES: COc1cc(C(=O)N2CCC3(CC2)NC(=O)c2cc(C)c(C)cc2O3)nc2c(OC)cccc12 [Compound 153]

IC50 (hACC1): 33 nM
IC50 (hACC2): 48 nM
SMILES: COc1ccc2c(c1)C(=O)NC1(CCN(C(=O)c3cc(OC)c4cccc(SC)c4n3)CC1)O2 [Compound 157]

IC50 (hACC1): 30 nM
IC50 (hACC2): 27 nM
SMILES: COc1cc(C(=O)N2CCC3(CC2)NC(=O)c2cc(C)c(C)cc2O3)nc2c(SC)cccc12 [Compound 154]

IC50 (hACC1): 28 nM
IC50 (hACC2): 14 nM
SMILES: COc1cc(C(=O)N2CCC3(CC2)NC(=O)c2cc(Cl)ccc2O3)cc2c(OC)cccc12 [Compound 171]

IC50 (hACC1): 5 nM
IC50 (hACC2): 4 nM
SMILES: COc1cc(C(=O)N2CCC3(CC2)NC(=O)c2cc(C)c(C)cc2O3)cc2c(OC)cccc12 [Compound 155, 1′-[(4,8-Dimethoxynaphth-2-yl)carbonyl]-6,7-dimethylspiro[2H-1,3-benzoxazin-2,4′-piperidin]-4-(3H)-one]

IC50 (hACC1): 4 nM
IC50 (hACC2): 3 nM
SMILES: COc1ccc2c(c1)C(=O)NC1(CCN(C(=O)c3cc(OC)c4cccc(OC)c4c3)CC1)O2 [Compound 152, 1′-[(4,8-Dimethoxynaphth-2-yl)carbonyl]-6-methoxyspiro[2H-1-1,3-benzoxazin-2,4′-piperidin]-4-(3H)-one]
activity at 3.3 µM [1]: 84.1%
activity at 10 µM [1]: 56.9%
activity at 3.3 µM [2]: 53.3%
activity at 10 µM [2]: 42%
activity at 3.3 µM [3]: 57%
activity at 10 µM [3]: 25.7%
activity at 3.3 µM [4]: 88%

IC50 (hACC1): 4 nM
IC50 (hACC2): 5 nM
SMILES: COc1cc(C(=O)N2CCC3(CC2)NC(=O)c2cc4ccccc4cc2O3)nc2c(OC)cccc12 [Compound 159]

IC50 (hACC1): 4 nM
IC50 (hACC2): 3 nM
SMILES: COc1cc(C(=O)N2CCC3(CC2)NC(=O)c2cc4ccccc4cc2O3)cc2c(OC)cccc12 [Compound 160]

IC50 (hACC1): 4 nM
IC50 (hACC2): 4 nM
SMILES: COc1ccc2cc3c(cc2c1)C(=O)NC1(CCN(C(=O)c2cc(OC)c4cccc(OC)c4n2)CC1)O3 [Compound 164]
activity at 3.3 µM [1]: 73.1%
activity at 10 µM [1]: 46%
activity at 3.3 µM [2]: 54%
activity at 10 µM [2]: 43.5%
activity at 3.3 µM [3]: 47.6%
activity at 10 µM [3]: 13.9%
activity at 3.3 µM [4]: 68%
